# Assay results as given in patent US9649305B2, “PFKFB3 inhibitor and methods of use as an anti-cancer therapeutic” (ADVANCED CANCER THERAPEUTICS, LLC, priority 2012, dated 2017).
# Like-named read-outs stand apart in the source and are kept apart here.
# Assay: IV pharmacokinetics in mice
# Type: in vivo, Balbc mice
# Protocol: The pharmacokinetic (PK) parameters for PFK-158 were determined in mice following IV (intravenous) administration in mice and rats. A typical study design includes six animals (male or female) 7 to 8 weeks old.
# Mouse pharmacokinetic properties using a dose of 5 mg/kg were determined after IV administration using a 10% DMSO, 10% PEG-200, 10% Solutol:ethanol (1:1) and 70% D5W solution or any other pharmaceutically acceptable parenteral formulation. Blood samples were collected at different intervals. Plasma samples were extracted and analyzed using an LC-MS/MS method. Similar protocols were used for the rat PK study (Sprague Dawley rats; 30 mg/kg), although the formulation for rat PK studies differed (30% Captisol, pH 3.0 solution). Time vs. plasma concentration plots were prepared as shown in FIGS. 4 (BalbC mice) and 5 (SD rats), respectively. Pharmacokinetic parameters were calculated and are provided below in Table 7.
# [1] = Table 7, Mouse (5 mg/kg), IV, Balbc mice
# [2] = mouse, plasma, 5 mg/kg, Table 2, Balbc mice, IV dosing
smiles,measurement,setting,value
"O=C(/C=C/c1ccc2ccc(C(F)(F)F)cc2n1)c1ccncc1 [PFK-158, (E)-1-(pyridyn-4-yl)-3-(7-(trifluoromethyl)quinolin-2-yl)-prop-2-en-1-one]",AUC(0-inf),[1],"3,235 ng · h/ml"
same,Cmax,[1],"4,176 ng/mL"
same,T1/2b,[1],10.4 h
same,AUC(0-inf),"Table 9, BalbC mice, IV dosing",3235 ng·h/mL
same,T1/2,"Table 9, BalbC mice, IV dosing",10.5 h
same,clearance,[2],26 mL/min/kg
same,half-life,[2],10.5 h
same,AUC(0-inf),"mouse, plasma, 5 mg/kg, Table 2, Balbc mice, IV dosing, read-out: AUC0-inf",3240 ng·h/mL
same,Cmax,"mouse, plasma, 5 mg/kg, Table 2, Balbc mice, IV dosing, read-out: Cmax",4180 ng/mL
